According to publication PMC11351550, “Synthesis, Cytotoxicity and Antioxidant Activity Evaluation of Some Thiazolyl–Catechol Compounds” (Antioxidants, 2024):
Counter-ions that a name gives are not always drawn.

Experiments:
[1] = ABTS radical cation decolorization assay; assay type: biochemical; conditions: 10 min, pH 7.4, 734 nm; read-out: IC50 against ABTS•+
Protocol: (§1) The stock solutions of the reference antioxidants (ascorbic acid, Trolox, EDTA-Na2) and compounds 3a–j were prepared by dissolving the solid powders in DMSO, obtaining 2 mM stock solutions. Following this, an additional set of solutions (0.2 mM) for each compound was obtained by dilution with DMSO. Absorption spectra of the tested compounds covering the range from 400 nm to 800 nm were recorded, indicating no absorption peaks near the wavelengths employed in the experiments. All measurements in the presented assays were made against blank samples. To quantify the activity of the compounds 3a–j, for the antiradical assays (DPPH and ABTS) and ferrous ion chelation, IC50 was calculated using Equation (1), while for the electron transfer assays (TAC, RP, FRAP and CUPRAC), the reference number of mole equivalent activity for each compound was calculated using Equation (2). (1) radical scavenging (%)=control absorbance−sample absorbance/control absorbance×100 (2) equivalents of control=sample absorbance/control absorbance
The decolorization assay of the green ABTS^•+ (2,2′-azinobis-(3-ethylbenzothiazoline-6-sulfonic acid) to ABTS, based on the report of Re et al., was conducted following our group’s published report. The chemical stability of the ABTS^•+ reagent prior to use was checked at λ = 734 nm over one hour, ensuring a consistent absorption (approximately equal to 0.7). The reagent was prepared in potassium phosphate buffer (0.1 M, pH = 7.4) and activated overnight using MnO2 [17]. In all cuvettes, we added 100 μL of the tested compound solutions (0.2 mM) in increasing concentrations up to 200 µL and 2000 µL of the ABTS^•+ reagent. The resulting mixtures were thoroughly shaken for 10 min at room temperature, in the absence of light. The optical absorbance of the resulting mixtures was then measured by spectrophotometry at λ = 734 nm.

[2] = test system: normal human foreskin fibroblasts (BJ); assay: Alamar Blue cytotoxicity assay, BJ cells; assay type: cell-based; conditions: for IC50: Homo sapiens, Fibroblast, 48 h exposure, Alamar Blue
Protocol: (§2) BJ cells were maintained in Dulbecco’s modified Eagle’s medium (DMEM) with low glucose (1 g/L), while the A549 cells were seeded in DMEM with high glucose (5 g/L). All media were supplemented with 10% fetal bovine serum (FBS) and 1% Penicillin/Streptomycin. […] Cellular media were refreshed every other day. Cells were either subcultured or used in experiments once they reached a confluency of 80–90%.
(§3) The cytotoxicity of the synthesized compounds was evaluated by Alamar Blue (AB) assays performed on both cell lines, A549 and BJ, after a 48 h exposure, as previously reported.
(§4) Briefly, approximately 7000 A549 cells and 4000 normal BJ cells were seeded in 100 µL cellular media in 96-well plates to achieve a confluency of 70–80% at the end of the experiment and left to attach overnight before exposure. […] Post-exposure, the media were removed, and the AB assay was performed, with cells being incubated with a 200 µM solution of resazurin for 4 h. The obtained fluorescence was measured at λexcitation = 530/25; λemission = 590/35.
(§5) The experiments included three biological replicates, each one including three technical replicates. The negative control (NC) consisted of cells exposed to a cell culture medium containing 0.2% DMSO and was used for data normalization (100%).

[3] = Ferric-Reducing Antioxidant Potential (FRAP) assay; assay type: biochemical; conditions: pH 3.6, 593 nm
Protocol: as §1
The Ferric-Reducing Antioxidant Potential (FRAP) assay relies on the transfer of an electron from the antioxidant being assessed to Fe^3+, resulting in its conversion to Fe^2+. The resulting Fe^2+ ions are then chelated by 2,4,6-tripyridyl-s-triazine, giving a blue-colored complex, with an absorption maximum at λ = 593 nm. A 500 µL amount of the solutions (0.2 mM) of compounds and reference compounds was mixed with 600 µL FRAP reagent and 1200 µL acetate buffer (0.3 M, pH = 3.6), according to previous reports. The resulting solutions were mixed well in the dark, and their absorbance was measured spectrophotometrically.

[4] = CUPRAC (CUPric-Reducing Antioxidant Capacity) assay; assay type: biochemical; conditions: 30 min, 450 nm
Protocol: as §1
The electron-donating capacity of compounds was assessed using the CUPRAC (CUPric-Reducing Antioxidant Capacity) method. The protocol for this assay is a modification of the reports of Alam et al., Özyürek et al., and Apak et al.. Volumes of 250 µL of CuCl2 10 mM, 1 mL of ammonium acetate buffer 1 M, and 250 µL of 7.5 mM neocuproine in ethanol were mixed with 125 µL of samples and reference compound solutions (0.2 mM). The mixtures were shaken for 30 min in the dark; after that, their absorbance was determined spectrophotometrically at λ = 450 nm.

[5] = Total Antioxidant Capacity (TAC) assay; assay type: biochemical; conditions: 95 °C, 1.5 h, 695 nm
Protocol: as §1
The Total Antioxidant Capacity (TAC) assay was conducted following the methodology outlined in our previous publication, which was based on initial reports from the literature. A volume of 10 mL of the reagent (0.6 M H2SO4, 28 mM Na3PO4 and 4 mM (NH4)6Mo7O24) and 1000 µL of the compound and standard solutions dispensed from the 2 mM stock solutions were mixed in sealed glass test tubes and incubated in a water bath at 95 °C for 1.5 h. After cooling the test tubes to room temperature, 1000 µL of each solution was diluted with 1000 µL of water. The absorbance of the solutions was then measured at λ = 695 nm.

[6] = test system: human pulmonary malignant cells (A549); assay: Alamar Blue cytotoxicity assay, A549 cells; assay type: cell-based; conditions: for IC50: Homo sapiens, A549, 48 h exposure, Alamar Blue, read-out: IC50 (±SD) A549; for Selectivity Index: ratio between the calculated IC50 on BJ and A549 cells, 48 h
Protocol: as §2, §3, §4, §5

[7] = Ferrous ion chelation assay (ferrozine); assay type: biochemical; parameters: key: - represents negligible activity
Protocol: as §1
To evaluate the ability of compounds to chelate ferrous ions, an assay was performed using an adaptation of Dinis et al.’s initial report. The solutions of the tested compounds (2 mM) were mixed well with 500 µL of FeSO4 (0.125 mM), and 500 µL of ferrozine 0.315 mM. After 10 min, the absorbance of the samples was determined spectrophotometrically at λ = 562 nm. EDTA-Na2 was used as a positive control, due to its exceptional ion chelation properties.

[8] = Reducing power (RP) assay; assay type: biochemical; conditions: 50 °C, 20 min, pH 6.6
Protocol: as §1
In the reducing power (RP) assay, the tested compounds performed the reduction of ferric ions from potassium ferricyanide, forming ferrocyanide, which gives a blue complex. The protocol followed is an adaptation of previously reported methodologies. In glass test tubes, 1000 µL of solutions containing compounds and standards measured from the 0.2 mM stock solutions were mixed with 400 µL of phosphate buffer (0.2 M, pH = 6.6) and 400 µL of K3[Fe(CN)6] solution (1% w/v). The tubes were sealed and incubated for 20 min in a water bath at 50 °C. After cooling to room temperature, 500 µL of trichloroacetic acid (10% w/w) was added to all test tubes The resulting mixtures were left for 0.5 h at room temperature. Subsequently, 250 µL of the resulting solutions were mixed with 140 µL of FeCl3 solution (0.1% w/v) and 1000 µL of distilled water, and the absorbance of the resulting solutions was determined at λ = 695 nm.

[9] = DPPH radical-scavenging assay; assay type: biochemical; conditions: 30 min in the dark, 517 nm; read-out: IC50 against DPPH•
Protocol: as §1
The DPPH˙ (2,2-diphenyl-1-picrylhydrazyl) radical-scavenging assay, initially reported by Brand-Williams et al., relies on transferring a hydrogen atom from the antioxidant substrate being analyzed to the stable violet radical of DPPH˙. This action converts DPPH˙ into a nonradical stable yellow compound. The reduction in absorbance of the DPPH˙ at λ = 517 nm corresponds to the quantity of neutralized reagent. To perform the DPPH assay, we took 50, 75, 100, 125, and 150 µL of each sample from their 0.2 mM stock solutions, then we adjusted the volumes with DMSO to ensure all samples reached a uniform final volume. These solutions were mixed with 1 mL of DPPH reagent and incubated in the dark for 30 min, as presented in literature reports.

| Structure (SMILES) | melting point | IC50 [1] | IC50 [2] | decrease of viability of BJ cells ([2]; highest tested dose, 48 h) | FRAP Eq Trolox [3] | CUPRAC Eq Trolox [4] | TAC Eq Ascorbic Acid [5] | IC50 [6] | Selectivity Index [6] | ferrous ion chelation percent ([7]; 0.25 µM) | ferrous ion chelation percent ([7]; 0.5 µM) | ferrous ion chelation percent ([7]; 1 µM) | ferrous ion chelation percent ([7]; 1.5 µM) | ferrous ion chelation percent ([7]; 2 µM) | RP Eq Ascorbic Acid [8] | RP Eq Trolox [8] | IC50 [9] |
| --- | --- | --- | --- | --- | --- | --- | --- | --- | --- | --- | --- | --- | --- | --- | --- | --- | --- |
| Cc1cccc(-c2nc(-c3ccc(O)c(O)c3)cs2)c1 (as salt: hydrochloride) [Compound 3e, 4-(2-(m-tolyl)thiazol-4-yl)benzene-1,2-diol] | 196 °C |  |  |  |  |  |  |  |  |  |  |  |  |  |  |  |  |
| COc1cc(-c2nc(-c3ccc(O)c(O)c3)cs2)cc(OC)c1OC (as salt: hydrochloride) [Compound 3f, 4-(2-(3,4,5-trimethoxyphenyl)thiazol-4-yl)benzene-1,2-diol] | 219 °C |  |  |  |  |  |  |  |  |  |  |  |  |  |  |  |  |
| Oc1ccc(-c2csc(-c3ccncc3)n2)cc1O (as salt: hydrochloride) [Compound 3g, 4-(2-(pyridin-4-yl)thiazol-4-yl)benzene-1,2-diol] | 240 °C |  |  |  |  |  |  |  |  |  |  |  |  |  |  |  |  |
| Oc1ccc(-c2csc(-c3ccccn3)n2)cc1O (as salt: hydrochloride) [Compound 3h, 4-(2-(pyridin-2-yl)thiazol-4-yl)benzene-1,2-diol] | 230 °C |  |  |  |  |  |  |  |  |  |  |  |  |  |  |  |  |
| Oc1ccc(-c2csc(-c3csc(-c4ccccc4)n3)n2)cc1O (as salt: hydrochloride) [Compound 3i, 4-(2′-phenyl-[2,4′-bithiazol]-4-yl)benzene-1,2-diol] | 258 °C |  |  |  |  |  |  |  |  |  |  |  |  |  |  |  |  |
| Cc1ccc(-c2nc(-c3nc(-c4ccc(O)c(O)c4)cs3)cs2)cc1 (as salt: hydrochloride) [Compound 3j, 4-(2′-(p-tolyl)-[2,4′-bithiazol]-4-yl)benzene-1,2-diol] | 265 °C |  |  |  |  |  |  |  |  |  |  |  |  |  |  |  |  |
| Oc1ccc(-c2csc(-c3ccncc3)n2)cc1O [Compound 3g, 4-(2-(pyridin-4-yl)thiazol-4-yl)benzene-1,2-diol] |  | 7.59 µM | > 100 µM | approximately 20% | 1.63 Eq Trolox | 3.60 Eq Trolox | 0.64 Eq Ascorbic Acid | 7.34 µM | >13.62 | - | - | - | - | - | 2.04 Eq Ascorbic Acid | 1.69 Eq Trolox | 36.7 µM |
| Oc1ccc(-c2csc(-c3ccccn3)n2)cc1O [Compound 3h, 4-(2-(pyridin-2-yl)thiazol-4-yl)benzene-1,2-diol] |  | 13.5 µM | 76.7 µM |  | 1.03 Eq Trolox | 2.13 Eq Trolox | 1.34 Eq Ascorbic Acid | 13.1 µM | 5.84 | - | - | - | - | - | 2.06 Eq Ascorbic Acid | 1.71 Eq Trolox | 40.3 µM |
| Oc1ccc(-c2csc(-c3csc(-c4ccccc4)n3)n2)cc1O [Compound 3i, 4-(2′-phenyl-[2,4′-bithiazol]-4-yl)benzene-1,2-diol] |  | 14.1 µM | 29.4 µM |  | 1.14 Eq Trolox | 1.84 Eq Trolox | 0.51 Eq Ascorbic Acid | 5.18 µM | 5.67 | - | - | - | - | - | 1.63 Eq Ascorbic Acid | 1.35 Eq Trolox | 45.9 µM |
| Cc1ccc(-c2nc(-c3nc(-c4ccc(O)c(O)c4)cs3)cs2)cc1 [Compound 3j, 4-(2′-(p-tolyl)-[2,4′-bithiazol]-4-yl)benzene-1,2-diol] |  | 17.7 µM | 24.2 µM |  | 1.06 Eq Trolox | 1.61 Eq Trolox | 0.36 Eq Ascorbic Acid | 4.28 µM | 5.67 | - | - | - | - | - | 1.81 Eq Ascorbic Acid | 1.50 Eq Trolox | 49.6 µM |
